Reference: patent US10770169B2, “Method of providing a treatment to a subject based on a dynamic pathway map” (THE REGENTS OF THE UNIVERSITY OF CALIFORNIA, priority 2010, dated 2020)
Read-outs that look alike come from different tables or passages of the source.

Test system: panel of 55 breast cancer cell lines
Assay: Cell growth inhibition assay (Cell Titer Glo, 72 h, 9 doses; GI50, TGI, LC50)
Type: cell-based, human
Settings: Homo sapiens, read-out: GI50 (converted)

## Cc1ccc(C(=O)N(CCCN)[C@@H](c2nc3cc(Cl)ccc3c(=O)n2Cc2ccccc2)C(C)C)cc1 [Ispinesib]
AU565, cell line AU565, censored GI50 values
  GI50: 22.4 nM
AU565, cell line AU565
  GI50: 22.4 nM
BT-20, cell line BT20, censored GI50 values
  GI50: 17 nM
BT-20, cell line BT20
  GI50: 17 nM
BT-474, cell line BT474, censored GI50 values
  GI50: 51.3 nM
BT-474, cell line BT474
  GI50: 51.3 nM
BT-483, cell line BT483, censored GI50 values
  GI50: 0.049 nM
BT-483, cell line BT483
  GI50: 0.049 nM
BT-549, cell line BT549, censored GI50 values
  GI50: 46.8 nM
BT-549, cell line BT549
  GI50: 46.8 nM
CAMA-1, cell line CAMA1, censored GI50 values
  GI50: 31.6 nM
CAMA-1, cell line CAMA1
  GI50: 31.6 nM
HCC38, cell line HCC38, censored GI50 values
  GI50: 46.8 nM
HCC38, cell line HCC38
  GI50: 46.8 nM
HCC70, cell line HCC70, censored GI50 values
  GI50: 45.7 nM
HCC70, cell line HCC70
  GI50: 45.7 nM
HCC202, cell line HCC202, censored GI50 values
  GI50: 7.59 nM
HCC202, cell line HCC202
  GI50: 7.59 nM
HCC1143, cell line HCC1143, censored GI50 values
  GI50: 51.3 nM
HCC1143, cell line HCC1143
  GI50: 51.3 nM
HCC1187, cell line HCC1187, censored GI50 values
  GI50: 26.9 nM
HCC1187, cell line HCC1187
  GI50: 26.9 nM
HCC1395, cell line HCC1395, censored GI50 values
  GI50: 27.5 nM
HCC1395, cell line HCC1395
  GI50: 27.5 nM
HCC1419, cell line HCC1419, censored GI50 values
  GI50: 6760 nM
HCC1419, cell line HCC1419
  GI50: 6760 nM
HCC1428, cell line HCC1428, censored GI50 values
  GI50: 4470 nM
HCC1428, cell line HCC1428
  GI50: 4470 nM
HCC1500, cell line HCC1500, censored GI50 values
  GI50: 33.9 nM
HCC1500, cell line HCC1500
  GI50: 33.9 nM
HCC1806, cell line HCC1806, censored GI50 values
  GI50: 28.8 nM
HCC1806, cell line HCC1806
  GI50: 28.8 nM
HCC1937, cell line HCC1937, censored GI50 values
  GI50: 282 nM
HCC1937, cell line HCC1937
  GI50: 282 nM
HCC1954, cell line HCC1954, censored GI50 values
  GI50: 30.9 nM
HCC1954, cell line HCC1954
  GI50: 30.9 nM
MCF7, cell line MCF7, censored GI50 values
  GI50: 38 nM
MCF7, cell line MCF7
  GI50: 38 nM
MDA-MB-134-VI, cell line MDAMB134VI, censored GI50 values
  GI50: 43.7 nM
MDA-MB-157, cell line MDAMB157, censored GI50 values
  GI50: 31.6 nM
MDA-MB-175-VII, cell line MDAMB175VII, censored GI50 values
  GI50: 1700 nM
MDA-MB-231, cell line MDAMB231, censored GI50 values
  GI50: 31.6 nM
MDA-MB-361, cell line MDAMB361, censored GI50 values
  GI50: 33.9 nM
MDA-MB-415, cell line MDAMB415, censored GI50 values
  GI50: 75.9 nM
MDA-MB-436, cell line MDAMB436, censored GI50 values
  GI50: 38.9 nM
MDA-MB-453, cell line MDAMB453, censored GI50 values
  GI50: 42.7 nM
MDA-MB-468, cell line MDAMB468, censored GI50 values
  GI50: 19.1 nM
SK-BR-3, cell line SKBR3, censored GI50 values
  GI50: 33.9 nM
SUM52PE, cell line SUM52PE, censored GI50 values
  GI50: 28.8 nM
SUM149PT, cell line SUM149PT, censored GI50 values
  GI50: 33.1 nM
SUM185PE, cell line SUM185PE, censored GI50 values
  GI50: 110 nM
SUM225CWN, cell line SUM225CWN, censored GI50 values
  GI50: 105 nM
SUM1315MO2, cell line SUM1315MO2, censored GI50 values
  GI50: 40.7 nM
SUM-159-PT, cell line SUM159PT, censored GI50 values
  GI50: 47.9 nM
T47D, cell line T47D, censored GI50 values
  GI50: 83.2 nM
UACC-893, cell line UACC893, censored GI50 values
  GI50: 10.5 nM
ZR-75-1, cell line ZR751, censored GI50 values
  GI50: 89.1 nM
ZR-75B, cell line ZR75B, censored GI50 values
  GI50: 132 nM
Cell line 600MPE, censored GI50 values
  GI50: 20.9 nM
Cell line 600MPE
  GI50: 20.9 nM
Cell line HCC2185, censored GI50 values
  GI50: 29.5 nM
Cell line HCC2185
  GI50: 29.5 nM
Cell line HCC3153, censored GI50 values
  GI50: 28.2 nM
Cell line HCC3153
  GI50: 28.2 nM
Cell line LY2, censored GI50 values
  GI50: 22.9 nM
Cell line LY2
  GI50: 22.9 nM
